US7301020B2, “Macrolide analogs and methods for identifying same” (priority 2003, dated 2007)

B1: CapG: Ca^2+-dependent, (+)-end actin filament capping protein, cloned from mouse brain cDNA library (protein, UniProt P24452 1-352, looked up)
Macrophage-capping protein: MYTPIPQSGSPFPASVQDPGLHIWRVEKLKPVPIARESHGIFFSGDSYLVLHNGPEEASHLHLWIGQQSSRDEQGACAVLAVHLNTLLGERPVQHREVQGNESDLFMSYFPRGLKYYREGGVESAFHKTTSGARGAAIRKLYQVKGKKNIRATERPLSWDSFNTGDCFILDLGQNIFAWCGGKSNILERNKARDLALAIRDSERQGKAQVEIITDGEEPAEMIQVLGPKPALKEGNPEEDITADQTRPNAQAAALYKVSDATGQMNLTKVADSSPFASELLIPDDCFVLDNGLCAQIYIWKGRKANEKERQAALQVADGFISRMRYSPNTQVEILPQGRESPIFKQFFKNWK

Columns and labels:
[1] = system: NBT-II cells; experiment: Effect of macrolides on NBT-II cells (live cell microscopy); assay type: cell-based, rat
Method: FIG. 7: Effect of KabC on NBT-II cells. NBT-II cells are imaged after 16 hours of drug treatment. KabC concentrations: (A), Control; (B), 10 nM; (C), 100 nM and (D), 1000 nM.
Cell Culture: Rat bladder NBT-II carcinoma cells and mouse NIH 3T3 fibroblast cells are maintained and treated with external drugs as described in Choidas et al (1998).
Live cell microscopy: A multi-model microscope workstation was used to image phase contrast and fluorescence images of living cells (Choidas et al, 1998). Cells are maintained at 37° in a Hepes based culture medium in a Bioptechs cell perfusion chamber (Choidas et al, 1998).

[2] = target: T1, Prodan-G-actin (Oryctolagus cuniculus, UniProt P68135); experiment: Competition-binding assay with GS1 and CapG on Prodan-G-actin; set-up: F-actin is purified from rabbit skeletal muscle using a standard protocol; from tissue; host or cells: actin from rabbit skeletal muscle; CapG and GS1 expressed in E. coli M15; species or system rabbit
Method: FIG. 4: (A) CapG: (a), Prodan-G-actin (100 nM), (b), Prodan-G-actin-CapG; (c), same as (b) in the presence of 0.2 μM KabC; (B); GS1: (a), Prodan-G-actin 100 nM; (b), Prodan-G-actin-GS1; (c), same as (b) in the presence of 0.2 μM KabC.
Characterization of actin binding proteins: The actin-binding properties of the ABPs used in this study are evaluated from changes in the fluorescence emission spectrum of Prodan-actin and actin polymerization assays as described by Marriott et al (1988).
Trisoxazolemacrolides specifically compete with GS1 for the (+)-end binding site on actin. Gelsolin, a monomeric 80 kD cytoskeleton protein composed of six domains interacts with actin filaments in a complex, Ca^2+-dependent manner (Janmey et al, 1985; Burtnick et al, 1997). Gelsolin exerts two major effects once bound to an actin filament: first it severs the filament and second it remains tightly bound to the severed (+)-end and serves to block, or cap, further growth. […] Structural analyses of G-actin complexes with GS1 (McLaughlin et al, 1993) and KabC show these unrelated molecules bind to G-actin through common contact sites that include a patch of hydrophobic residues on the surface between sub-domains 1 and 3 and within the cleft that forms between the interface of sub-domains 1 and 3 (McLaughlin et al, 1993;). GS1 binding to Prodan-G-actin shifts the average energy of the fluorescence emission to the red and is accompanied by a decrease in the quantum yield (FIG. 4A) but not to the extent seen in the KabC-G-actin complex (FIG. 2).
Trisoxazolemacrolides specifically compete with CapG for the (+)-end binding site on actin. CapG, a Ca^2+-dependent, (+)-end actin filament capping protein, is found at high levels in macrophage cells where it regulates membrane ruffling and cell protrusions associated with phagocytosis and motility (Botelho et. al., 2000). […] The Ca^2+-dependent binding of CapG to Prodan-G-actin is accompanied by a dramatic blue-shift in the emission spectrum and an increase in quantum yield (FIG. 4B, curve b). The difference in fluorescence emission spectra between free and CapG-bound Prodan-G-actin is used to quantify the parameters for this binding reaction. The G-actin-CapG complex exists as a 1:1 complex and has a dissociation constant of 100 nM (data not shown). […] This conclusion is consistent with a comparison of high-resolution structures of G-actin with GS1 and KabC and a preliminary analysis of a 2.8 Angstrom structure of a CapG mutant (Vorobiev et al, PDB database, 2002). […] However the emission properties of the CapG-Prodan-G-actin complex are unaffected by the binding of LatA, DNAse and thymosin β4 (Tβ4), which is consistent with some structural data showing that these sequestering molecules bind closer to the ATP pocket and DNAse binding loop (Kabsch et al, 1990).

[3] = target: T1, Prodan-G-actin; experiment: Kinetic analysis of binding to Prodan-G-actin (stopped-flow and slow phase); set-up: F-actin is purified from rabbit skeletal muscle using a standard protocol; Prodan (Acrylodan) fluorophore, chemical label on the thiol of Cys374; from tissue; host or cells: rabbit skeletal muscle; species or system rabbit
Method: FIG. 3: Kinetic analyses of KabC binding of Prodan labeled G-actin. (A-B). Prodan-actin (0.1 μM) and KabC, loaded into separated syringes, were rapidly mixed within ˜1 msec dead-time. The concentrations of KabC were 0.0 μM (a), 1.0 μM (b), 1.5 μM (c), 2.0 μM (d) and 2.5 μM (data not shown), respectively. The decreases in emission intensity were well fitted with single exponential functions to determine the observed rate, kobs. The observed rates are plotted as a function of the [KabC] in panel (B).
Kinetic analysis of binding reactions. The kinetics of the KabC interaction with Prodan-actin is determined, using an Applied Photophysics SX.18MV Stopped-flow spectrometer, by following the decrease in the emission intensity of Prodan-actin at 25° C. Prodan was excited at 385 nm and emission was collected with a 470 nm (+/−5 nm) band-pass filter. In all cases the decrease in emission intensity was best fit with a single exponential function, which was then used to determine the observed rate, kobs. Kinetic constants of on rate (kon) and off rate (koff) were calculated according to the following equation: kobs=kon[KabC]+koff. The kinetics of the slower binding step observed in the interaction of KabC with Prodan-G-actin interaction is measured by measuring the ratio of fluorescence signals at 465 nm and 530 nm. The decay of this ratio is fit using a single exponential rate.

[4] = target: T2, Prodan-labeled G-actin (Oryctolagus cuniculus, UniProt P68135); experiment: Prodan-G-actin titration: binding stoichiometry and dissociation constant; set-up: species or system rabbit; details: Prodan-G-actin titration; read-out: dissociation constant of G-actin complex
T2 construct: F-actin is purified from rabbit skeletal muscle using a standard protocol; Prodan (Acrylodan) fluorophore, chemical label on the thiol of Cys374; from tissue; host or cells: rabbit skeletal muscle
Method: FIG. 2: (A), Stoichiometric binding of Prodan-labeled G-actin (1 μM) in G-buffer with KabC at final concentrations of in μm, a: 0.0; b: 0.1; c: 0.2; d: 0.3; e: 0.4; f: 0.5; g: 0.6; h: 0.7; i: 0.8; j: 0.9; k: 1.0; l: 1.1; m: 1.2; n: 1.5 (B), Plot of the integrated intensity in (A) against [KabC] yields a binding stoichiometry of 1:1.
Prodan-actin: Actin is labeled with the thiol probe, Acrylodan (Molecular Probes, Eugene, Oreg.) using a standard protocol (Marriott et al, 1988). Rabbit muscle G-actin is labeled with the thiol reactive, environmentally sensitive probe, Acrylodan, according to the inventor's earlier publication (Marriott et al, 1988). […]
Determination of the binding stoichiometry and dissociation constants for G-actin complexes with ABPs and macrolide drugs: The change in the quantum yield and/or emission energy of Prodan-actin is used to quantify the interaction of CapG and macrolides with G-actin. The stoichiometry of the CapG-G-actin and macrolide-G-actin complex is determined by titrating Prodan-G-actin at 1 μM with increasing amounts of CapG or the macrolide from 0.1^−10 μM. […] The equilibrium binding constant is determined by titrating a constant amount of Prodan labeled G-actin at 0.05˜0.1 μM in G- or F-buffer with incrementally increasing amounts of the macrolide or CapG over a range of 10 nM to 10 μM. […]

| Molecule | cytotoxic activity on NBT II epithelia cells [1] | effect of binding on emission properties of CapG-Prodan-G-actin complex [2] | other results |
| --- | --- | --- | --- |
| CO[C@H]1C[C@H](CC[C@H](C)[C@H](O)[C@H](C)[C@H]2OC(=O)/C(C)=C/C[C@H](O)C[C@@H]3C=CC[C@@H](C[C@H](OC)[C@@H](C)[C@@H](O)C[C@@H](O)[C@H](C)[C@@H]([C@@H](C)[C@@H](O)[C@@H](C)CC[C@H]4C[C@H](OC)C[C@H](C)O4)OC(=O)/C(C)=C/C[C@H](O)C[C@@H]4C=CC[C@@H](C[C@H](OC)[C@@H](C)[C@@H](O)C[C@@H](O)[C@@H]2C)O4)O3)O[C@@H](C)C1 [MisA, misakinolide A] | concentration dependent cytotoxic activity |  | binding site on actin by competition-binding assay [2]: bind to the same site on actin as KabC, CapG and GS1 |
| thymosin β4: actin monomer sequestering protein |  | unaffected |  |
| Ulapualide A [UlaA] | concentration dependent cytotoxic activity |  | binding steps in reaction with G-actin [3]: 1st and 2nd-binding steps are common |
| CO[C@H]1C[C@H](CC[C@H](C)[C@H](O)[C@H](C)[C@H]2OC(=O)/C=C/C(C)=C/C[C@H](O)C[C@@H]3C=CC[C@@H](C[C@H](OC)[C@@H](C)[C@@H](O)C[C@@H](O)[C@H](C)[C@@H]([C@@H](C)[C@@H](O)[C@@H](C)CC[C@H]4C[C@H](OC)C[C@H](C)O4)OC(=O)/C=C/C(C)=C/C[C@H](O)C[C@@H]4C=CC[C@@H](C[C@H](OC)[C@@H](C)[C@@H](O)C[C@@H](O)[C@@H]2C)O4)O3)O[C@@H](C)C1 [SwiA, Swinholide A] | concentration dependent cytotoxic activity |  | binding site on actin by competition-binding assay [2]: bind to the same site on actin as KabC, CapG and GS1 |
| DNAse |  | unaffected |  |
| C/C1=C/C(=O)O[C@@H]2C[C@@H](CC[C@H](C)/C=C\C=C\CC1)O[C@@](O)([C@@H]1CSC(=O)N1)C2 [LatA] |  | unaffected |  |
| COC(CC1OC(=O)CC(O)C/C=C/C(=O)C(C)C(OC)c2coc(n2)-c2coc(n2)-c2coc(n2)/C=C/CCC1C)C(C)CCC(=O)C(C)C(C/C=C/N(C)C=O)OC (stereo not drawn) [Hal, halichondramide] | concentration dependent cytotoxic activity |  | binding steps in reaction with G-actin [3]: 1st and 2nd-binding steps are common |
| B1 |  |  | Kd [4]: 100 nM |
